pIC50: −log10 of the molar value. Several values for one entry are separate records, joined by “and”; a condition that tells them apart may be missing. Identical values can stand only once.
Tests used:
OATP1B3 = target: T1, OATP1B3 (Homo sapiens, UniProt Q9NPD5); experiment: Uptake transporter inhibition assay, OATP1B3; settings: human, transformed HEK cells expressing OATP1B3, pH 7.4
T1 sequence (Q9NPD5 1-702): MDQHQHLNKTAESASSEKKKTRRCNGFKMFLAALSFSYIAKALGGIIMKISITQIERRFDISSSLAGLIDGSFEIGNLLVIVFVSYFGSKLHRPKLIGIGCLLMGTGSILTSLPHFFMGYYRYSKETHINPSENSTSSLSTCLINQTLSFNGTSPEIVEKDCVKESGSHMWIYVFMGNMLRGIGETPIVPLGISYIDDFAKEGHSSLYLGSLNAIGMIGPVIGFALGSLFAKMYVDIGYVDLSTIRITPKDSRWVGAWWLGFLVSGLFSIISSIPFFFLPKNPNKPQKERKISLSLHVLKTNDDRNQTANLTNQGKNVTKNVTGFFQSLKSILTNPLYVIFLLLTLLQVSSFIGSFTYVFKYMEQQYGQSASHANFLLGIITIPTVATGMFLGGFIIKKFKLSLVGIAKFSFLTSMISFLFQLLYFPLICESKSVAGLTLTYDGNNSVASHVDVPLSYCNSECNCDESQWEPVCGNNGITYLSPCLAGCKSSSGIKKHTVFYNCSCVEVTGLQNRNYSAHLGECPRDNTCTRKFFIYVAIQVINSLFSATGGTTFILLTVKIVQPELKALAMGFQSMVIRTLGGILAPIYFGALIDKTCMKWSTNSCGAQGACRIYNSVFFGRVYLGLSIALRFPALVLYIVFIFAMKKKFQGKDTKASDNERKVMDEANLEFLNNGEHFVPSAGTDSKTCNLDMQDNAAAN
Procedure: (§2) For the uptake transporter inhibition assay, cells were washed twice with 100 μL of the appropriate buffer (HK, pH 7.4) for OATP1B1, followed by HBSS (pH 7.4) for (NTCP, OAT1, OAT2v1, OATP1A2, and OATP1B3). Uptake experiments were carried out at 37 ± 1°C in 50 μL of the respective buffer containing the probe substrate and the compound or solvent. […] After the experiment, cells were washed twice with 100 μL of cold appropriate buffer and lysed with 50 μL of 0.1 M NaOH. Radiolabeled probe substrate transport was determined by measuring an aliquot (35 μL) from each well for liquid scintillation counting.

in vivo = settings: for AUC(0-t): AUC24h (Mean); for AUC24h (Mean): both
OATP1A2 = OATP1A2 (Homo sapiens, UniProt P46721); experiment: Uptake transporter inhibition assay, OATP1A2; settings: for Accumulation (counts per minute; CPM) HEK293FT-MOCK / Accumulation (counts per minute; CPM) HEK293FT-OATP1A2: OATP1A2;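 note: cellular uptake of a radiolabeled probe substrate in HBSS pH 7.4 at 37 °C with test compound or solvent, measured by liquid scintillation counting of cell lysates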
OATP1A2, sequence (P46721 whole entry): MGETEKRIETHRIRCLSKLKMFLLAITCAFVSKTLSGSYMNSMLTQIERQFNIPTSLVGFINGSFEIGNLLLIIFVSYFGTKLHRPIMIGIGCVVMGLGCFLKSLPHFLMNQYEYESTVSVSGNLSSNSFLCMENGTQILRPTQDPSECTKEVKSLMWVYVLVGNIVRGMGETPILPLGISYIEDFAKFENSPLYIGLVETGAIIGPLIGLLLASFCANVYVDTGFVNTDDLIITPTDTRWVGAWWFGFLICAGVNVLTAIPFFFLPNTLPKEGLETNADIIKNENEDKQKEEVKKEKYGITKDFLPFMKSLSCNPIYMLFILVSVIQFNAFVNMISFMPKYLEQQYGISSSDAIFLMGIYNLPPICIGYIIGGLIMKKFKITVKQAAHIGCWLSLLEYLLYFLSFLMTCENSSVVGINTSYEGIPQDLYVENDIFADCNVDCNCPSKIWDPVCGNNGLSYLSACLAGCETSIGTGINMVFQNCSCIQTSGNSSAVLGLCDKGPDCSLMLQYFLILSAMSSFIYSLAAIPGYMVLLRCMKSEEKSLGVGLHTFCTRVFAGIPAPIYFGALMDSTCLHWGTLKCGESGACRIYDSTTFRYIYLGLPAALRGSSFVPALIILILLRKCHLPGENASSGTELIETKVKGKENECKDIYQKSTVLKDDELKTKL
Procedure: as §2

HepG2 = experiment: Viability assay, HepG2 cells, MTT test, 48 h; type: cell-based, human; settings: for viability, normalized to DMSO-treated controls: sheet Fig1 panel B (HepG2), 48 h, replicates, in % (unit assumed)
Procedure: (§1) To study the viability of the liver cells, 5 × 10^3 HepG2 (ATCC®) or human primary cells (ThermoFisher Scientific, USA) were seeded in 100 μL of DMEM media (Gibco; Thermo Fisher Scientific, USA) supplemented with fetal bovine serum (FBS)- in a 96-well plate. […] The experiments were performed in triplicates.

[1] = Viability assay, HepG2 cells, MTT test, 48 h; type: cell-based, human; settings: human, HepG2 cells, sheet Fig1 panel B (HepG2), 48 h, replicates, read-out: viability, normalized to DMSO-treated controls
Procedure: as §1

[2] = Viability assay, human primary hepatocytes, RT-glo, 48 h; type: cell-based; settings: human, primary human hepatocytes, sheet Fig1 panel C (primary human hepatocytes), 48 h, replicates, read-out: viability, normalized to DMSO-treated controls
Procedure: as §1

[3] = system: human primary hepatocytes; experiment: as above; type: cell-based; settings: for viability, normalized to DMSO-treated controls: sheet Fig1 panel C (primary human hepatocytes), replicates, in % (unit assumed)
Procedure: as §1

OAT2v1 = target: T2, OAT2v1 (Homo sapiens, UniProt Q9Y694); experiment: Uptake transporter inhibition assay, OAT2v1; type: cell-based; settings: for Accumulation (counts per minute; CPM) HEK293FT-MOCK / Accumulation (counts per minute; CPM) HEK293FT-OAT2v1: OAT2v1
T2 construct: expressed in transfected cells; host or cells: HEK cells
T2 sequence (Q9Y694 1-546 isoform Q9Y694-2): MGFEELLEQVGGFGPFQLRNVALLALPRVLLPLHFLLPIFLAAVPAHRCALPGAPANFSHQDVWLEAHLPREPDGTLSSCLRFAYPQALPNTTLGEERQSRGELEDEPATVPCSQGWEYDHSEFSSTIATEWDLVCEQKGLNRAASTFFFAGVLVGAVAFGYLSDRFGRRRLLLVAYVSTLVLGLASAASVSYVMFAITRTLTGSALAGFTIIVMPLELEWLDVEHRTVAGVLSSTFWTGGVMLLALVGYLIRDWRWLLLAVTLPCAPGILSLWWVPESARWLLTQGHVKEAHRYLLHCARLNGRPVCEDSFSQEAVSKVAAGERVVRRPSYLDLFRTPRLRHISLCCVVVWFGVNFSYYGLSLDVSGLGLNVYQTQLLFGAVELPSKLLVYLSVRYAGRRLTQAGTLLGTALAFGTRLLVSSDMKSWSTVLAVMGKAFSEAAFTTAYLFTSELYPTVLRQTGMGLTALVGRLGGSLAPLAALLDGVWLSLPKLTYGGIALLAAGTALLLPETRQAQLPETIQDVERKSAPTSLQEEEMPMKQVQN
Procedure: For the uptake transporter inhibition assay, cells were washed twice with 100 μL of the appropriate buffer (HK, pH 7.4) for OATP1B1, followed by HBSS (pH 7.4) for (NTCP, OAT1, OAT2v1, OATP1A2, and OATP1B3). Uptake experiments were carried out at 37 ± 1°C in 50 μL of the respective buffer containing the probe substrate and the compound or solvent.

With `CC#C[C@@H](CC(=O)O)c1ccc(OCC(C)=C(C)C)cc1` [CPL207280] the pIC50 (OATP1B3) was 4.37, the “Accumulation in rat plasma after repeat dose” value (in vivo) was “No” and the Cmax at 14 days (in vivo; both sexes, Wistar Han, rat, 1200 mg/kg, Cmax) was 250 µg/mL. It also gave a Cmax (in vivo; both sexes, Wistar Han, rat, po, 150 mg/kg, Cmax) of 125 µg/mL, an AUC(0-t) (in vivo; both sexes, Wistar Han, rat, po, 300 mg/kg/day) of 2350 µg·h/mL and a Cmax (in vivo; both sexes, Wistar Han, rat, po, 300 mg/kg/day, Cmax (Mean)) of 227 µg/mL. It also gave an AUC(0-t) (in vivo; both sexes, Wistar Han, rat, po, 600 mg/kg/day) of 2920 µg·h/mL, a Cmax (in vivo; both sexes, Wistar Han, rat, po, 600 mg/kg/day, Cmax (Mean)) of 257 µg/mL and a Cmax (in vivo; both sexes, Wistar Han, rat, po, 1200 mg/kg, Cmax) of 222 µg/mL. The AUC (in vivo; both sexes, Wistar Han, rat, po, 1200 mg/kg, exposure - AUC) was 2590 µg·h/mL, the “AUC24h (Mean)” value (in vivo; Wistar Han, rat, po, 300 mg/kg/day) was 1605030 ng x hr/mL and the “AUC24h (Mean)” value (in vivo; Wistar Han, rat, po, 600 mg/kg/day) was 2156620 ng x hr/mL. For the same compound, the pIC50 (OATP1A2) was 3.93, the “fold less inhibitory potency than TAK-875, OATP1A2” value (OATP1A2) was “at least 10 fold” and the “Accumulation (counts per minute; CPM) HEK293FT-MOCK” value (OATP1A2; conc 0.10 µM) was 191 CPM and 198 CPM. The “Accumulation (counts per minute; CPM) HEK293FT-OATP1A2” value (OATP1A2; conc 0.10 µM) was 9941 CPM and 9363 CPM, the “Accumulation (counts per minute; CPM) HEK293FT-MOCK” value (OATP1A2; conc 1.00 µM) was 175 CPM and 167 CPM and the “Accumulation (counts per minute; CPM) HEK293FT-OATP1A2” value (OATP1A2; conc 1.00 µM) was 9582 CPM and 8309 CPM. For the same compound, the “Accumulation (counts per minute; CPM) HEK293FT-MOCK” value (OATP1A2; conc 3.00 µM) was 170 CPM and 189 CPM, the “Accumulation (counts per minute; CPM) HEK293FT-OATP1A2” value (OATP1A2; conc 3.00 µM) was 9105 CPM and 8526 CPM and the “Accumulation (counts per minute; CPM) HEK293FT-MOCK” value (OATP1A2; conc 10.00 µM) was 199 CPM and 184 CPM. The “Accumulation (counts per minute; CPM) HEK293FT-OATP1A2” value (OATP1A2; conc 10.00 µM) was 8813 CPM and 8062 CPM, the “Accumulation (counts per minute; CPM) HEK293FT-MOCK” value (OATP1A2; conc 30.00 µM) was 160 CPM and 178 CPM and the “Accumulation (counts per minute; CPM) HEK293FT-OATP1A2” value (OATP1A2; conc 30.00 µM) was 6805 CPM and 7468 CPM. For the same compound, the “Accumulation (counts per minute; CPM) HEK293FT-MOCK” value (OATP1A2; conc 100.00 µM) was 179 CPM and 165 CPM, the “Accumulation (counts per minute; CPM) HEK293FT-OATP1A2” value (OATP1A2; conc 100.00 µM) was 5379 CPM and 5182 CPM and the “Accumulation (counts per minute; CPM) HEK293FT-MOCK” value (OATP1A2; conc 300.00 µM) was 144 CPM and 136 CPM. The “Accumulation (counts per minute; CPM) HEK293FT-OATP1A2” value (OATP1A2; conc 300.00 µM) was 2696 CPM and 2783 CPM, the reduction of viability (HepG2; HepG2, 48 h, 100 μM) was 20% and the viability (HepG2; HepG2, 48 h, concentrations up to 10 μM) was “Neither compound exhibited altered viability”. For the same compound, the “times better tolerated by hepatocytes than TAK-875” value (HepG2; hepatocytes (HepG2 and human primary cells)) was 10 times, the “viability, normalized to DMSO-treated controls” value (“viability, normalized” for short) (HepG2; 0.78 uM) was 122.329 and 97.5265 and 106.534 and the “viability, normalized” value (HepG2; 3.125 uM) was 108.127 and 98.0055. The “viability, normalized” value (HepG2; 6.25 uM) was 101.696 and 107.84, the “viability, normalized” value (HepG2; 25 uM) was 115.053 and 98.9684 and the “viability, normalized” value (HepG2; 50 uM) was 104.17 and 94.9794. The “viability, normalized” value (HepG2; 100 uM) was 89.5534 and 112.297 and 99.381, the viability at 48 h, 3.125 µM ([1]; 3.125 uM) was 98.6% and the viability at 48 h, 6.25 µM ([1]; 6.25 uM) was 113%. For the same compound, the viability at 48 h, 25 µM ([1]; 25 uM) was 104%, the viability at 48 h, 50 µM ([1]; 50 uM) was 109% and the viability at 48 h, 0.78 µM ([2]; 0.78 uM) was 109%. For the same compound, the viability at 48 h, 3.125 µM ([2]; 3.125 uM) was 111%, the viability at 48 h, 6.25 µM ([2]; 6.25 uM) was 108% and the viability at 48 h, 25 µM ([2]; 25 uM) was 107%. The viability at 48 h, 50 µM ([2]; 50 uM) was 94.1%, the viability at 48 h, 100 µM ([2]; 100 uM) was 80.6% and the viability ([3]; human primary hepatocytes, 48 h, concentrations up to 10 μM) was “Neither compound exhibited altered viability”. The reduction of viability ([3]; primary cells, 48 h, 100 μM) was 20%, the “viability, normalized” value ([3]; 48 h, 0.78 uM) was 113.603 and 101.249 and the “viability, normalized” value ([3]; 48 h, 3.125 uM) was 114.319 and 102.513. For the same compound, the “viability, normalized” value ([3]; 48 h, 6.25 uM) was 112.73 and 100.537, the “viability, normalized” value ([3]; 48 h, 25 uM) was 106.605 and 99.5091 and the “viability, normalized” value ([3]; 48 h, 50 uM) was 95.5759 and 86.1766. The “viability, normalized” value ([3]; 48 h, 100 uM) was 81.3191 and 75.1172, the “Toxicity for human hepatocytes” value ([3]; summary comparison CPL207280 vs TAK-875) was “<” and the “fold less inhibitory potency than TAK-875, OAT2v1” value (OAT2v1) was “at least 10 fold”. The “Accumulation (counts per minute; CPM) HEK293FT-MOCK” value (OAT2v1; conc 0.10 µM) was 34 CPM and 30 CPM, the “Accumulation (counts per minute; CPM) HEK293FT-OAT2v1” value (OAT2v1; conc 0.10 µM) was 4632 CPM and 4226 CPM and the “Accumulation (counts per minute; CPM) HEK293FT-MOCK” value (OAT2v1; conc 1.00 µM) was 35 CPM and 32 CPM. The “Accumulation (counts per minute; CPM) HEK293FT-OAT2v1” value (OAT2v1; conc 1.00 µM) was 4766 CPM and 4500 CPM, the “Accumulation (counts per minute; CPM) HEK293FT-MOCK” value (OAT2v1; conc 3.00 µM) was 30 CPM and 23 CPM and the “Accumulation (counts per minute; CPM) HEK293FT-OAT2v1” value (OAT2v1; conc 3.00 µM) was 4371 CPM and 4417 CPM. The “Accumulation (counts per minute; CPM) HEK293FT-MOCK” value (OAT2v1; conc 10.00 µM) was 27 CPM and 18 CPM, the “Accumulation (counts per minute; CPM) HEK293FT-OAT2v1” value (OAT2v1; conc 10.00 µM) was 4079 CPM and 4225 CPM and the “Accumulation (counts per minute; CPM) HEK293FT-MOCK” value (OAT2v1; conc 30.00 µM) was 32 CPM and 37 CPM. The “Accumulation (counts per minute; CPM) HEK293FT-OAT2v1” value (OAT2v1; conc 30.00 µM) was 3998 CPM and 4091 CPM, the “Accumulation (counts per minute; CPM) HEK293FT-MOCK” value (OAT2v1; conc 100.00 µM) was 28 CPM and 36 CPM and the “Accumulation (counts per minute; CPM) HEK293FT-OAT2v1” value (OAT2v1; conc 100.00 µM) was 3763 CPM and 3594 CPM. For the same compound, the “Accumulation (counts per minute; CPM) HEK293FT-MOCK” value (OAT2v1; conc 300.00 µM) was 35 CPM and 25 CPM and the “Accumulation (counts per minute; CPM) HEK293FT-OAT2v1” value (OAT2v1; conc 300.00 µM) was 2566 CPM and 2951 CPM.
